{
  "source": "ChEMBL document CHEMBL4476877",
  "about": "“Treatment of COPD, gastro-esophageal reflux disease (GERD), food allergies and other gastrointestinal conditions and disorders ameliorated by proper histamine management using a combination of histidine decarboxylase inhibitors, LRA drugs, anti-H1 and/or anti-H2 drugs” (2012)",
  "key": {"Homo sapiens [1]": {"species_on_record": "Homo sapiens", "test": "Improvement in disease symptoms in patient with COPD assessed as TEV level at 200 mg/day co-treated with 10 mg/day Loratadine and measured after 6 weeks by spirometry (reference value: 1.4 L/secs)", "assay_type": "functional"}, "Homo sapiens [2]": {"species_on_record": "Homo sapiens", "test": "Improvement in disease symptoms in patient with COPD assessed as TEV level at 200 mg/day co-treated with 10 mg/day Loratadine and measured after 6 weeks by spirometry (reference value: 1.5 L/secs)", "assay_type": "functional"}, "Homo sapiens [3]": {"species_on_record": "Homo sapiens", "test": "Improvement in disease symptoms in patient with COPD assessed as TEV level at 200 mg/day co-treated with 10 mg/day Loratadine and measured after 6 months by spirometry (reference value: 1.4 L/secs)", "assay_type": "functional"}, "Homo sapiens [4]": {"system": "Homo sapiens", "test": "Improvement in disease symptoms in GERD patient assessed as improvement in disease symptoms at 200 mg dosed daily co-treated with 10 mg anti-H1 drug loratadine dosed daily and 150 mg anti-H2 drug Ranitidine dosed daily", "assay_type": "functional"}, "Homo sapiens [5]": {"species_on_record": "Homo sapiens", "test": "Improvement in disease symptoms in patient with COPD assessed as TEV level at 200 mg/day co-treated with 10 mg/day Loratadine and measured after 12 months by spirometry (reference value: 1.5 L/secs)", "assay_type": "functional"}, "Homo sapiens [6]": {"species_on_record": "Homo sapiens", "test": "Improvement in disease symptoms in patient with COPD assessed as TEV level at 200 mg/day co-treated with 10 mg/day Loratadine and measured after 6 months by spirometry (reference value: 1.8 L/secs)", "assay_type": "functional"}, "Homo sapiens [7]": {"system": "Homo sapiens", "test": "Improvement in disease symptoms in GERD patient assessed as improvement in disease symptoms at 200 mg dosed daily co-treated with 10 mg anti-H1 drug loratadine dosed daily relative to control", "assay_type": "functional"}, "Homo sapiens [8]": {"species_on_record": "Homo sapiens", "test": "Improvement in disease symptoms in patient with COPD assessed as TEV level at 200 mg/day co-treated with 10 mg/day Loratadine and measured after 8 months by spirometry (reference value: 1.4 L/secs)", "assay_type": "functional"}, "Homo sapiens [9]": {"species_on_record": "Homo sapiens", "test": "Improvement in disease symptoms in patient with COPD assessed as TEV level at 200 mg/day co-treated with 10 mg/day Loratadine and measured after 6 weeks by spirometry (reference value: 1.8 L/secs)", "assay_type": "functional"}, "Homo sapiens [10]": {"species_on_record": "Homo sapiens", "test": "Improvement in disease symptoms in patient with COPD assessed as TEV level at 200 mg/day co-treated with 10 mg/day Loratadine and measured after 12 months by spirometry (reference value: 1.8 L/secs)", "assay_type": "functional"}, "Homo sapiens [11]": {"species_on_record": "Homo sapiens", "test": "Improvement in disease symptoms in patient with COPD assessed as TEV level at 200 mg/day co-treated with 10 mg/day Loratadine and measured after 6 weeks by spirometry (reference value: 0.4 L/secs)", "assay_type": "functional"}, "Homo sapiens [12]": {"species_on_record": "Homo sapiens", "test": "Improvement in disease symptoms in patient with COPD assessed as TEV level at 200 mg/day co-treated with 10 mg/day Loratadine and measured after 6 weeks by spirometry relative to control", "assay_type": "functional"}, "Homo sapiens [13]": {"species_on_record": "Homo sapiens", "test": "Improvement in disease symptoms in patient with COPD assessed as TEV level at 200 mg/day co-treated with 10 mg/day Loratadine and measured after 6 months by spirometry (reference value: 1.2 L/secs)", "assay_type": "functional"}, "Homo sapiens [14]": {"species_on_record": "Homo sapiens", "test": "Improvement in disease symptoms in patient with COPD assessed as TEV level at 200 mg/day co-treated with 10 mg/day Loratadine and measured after 6 months by spirometry (reference value: 0.4 L/secs)", "assay_type": "functional"}, "Homo sapiens [15]": {"species_on_record": "Homo sapiens", "test": "Improvement in disease symptoms in patient with COPD assessed as increase in TEV level at 200 mg/day co-treated with 10 mg/day Loratadine and measured after 10 months by spirometry relative to untreated control", "assay_type": "functional"}, "Homo sapiens [16]": {"species_on_record": "Homo sapiens", "test": "Improvement in disease symptoms in patient with COPD assessed as TEV level at 200 mg/day co-treated with 10 mg/day Loratadine and measured after 6 months by spirometry (reference value: 1.5 L/secs)", "assay_type": "functional"}, "Homo sapiens [17]": {"species_on_record": "Homo sapiens", "test": "Improvement in disease symptoms in patient with COPD assessed as TEV level at 200 mg/day co-treated with 10 mg/day Loratadine and measured after 10 months by spirometry (reference value: 0.4 L/secs)", "assay_type": "functional"}, "Homo sapiens [18]": {"species_on_record": "Homo sapiens", "test": "Improvement in disease symptoms in patient with COPD assessed as TEV level at 200 mg/day co-treated with 10 mg/day Loratadine and measured after 6 weeks by spirometry (reference value: 1.2 L/secs)", "assay_type": "functional"}, "Homo sapiens [19]": {"species_on_record": "Homo sapiens", "test": "Improvement in disease symptoms in patient with COPD assessed as increase in TEV level at 200 mg/day co-treated with 10 mg/day Loratadine and measured after 8 months by spirometry relative to untreated control", "assay_type": "functional"}, "Homo sapiens [20]": {"system": "Homo sapiens", "test": "Improvement in disease symptoms in GERD patient assessed as reduction in regurgitation at 10 mg dosed daily", "assay_type": "functional, organism-based"}, "Homo sapiens [21]": {"system": "Homo sapiens", "test": "Improvement in disease symptoms in GERD patient assessed as reduction in heartburns at 10 mg dosed daily", "assay_type": "functional, organism-based"}, "Homo sapiens [22]": {"system": "Homo sapiens", "test": "Improvement in disease symptoms in GERD patient assessed as improvement in global disease scores at 10 mg dosed daily", "assay_type": "functional, organism-based"}, "Homo sapiens [23]": {"system": "Homo sapiens", "test": "Improvement in disease symptoms in GERD patient assessed as reduction in cough at 10 mg dosed daily", "assay_type": "functional, organism-based"}},
  "note": "Activity calls are given as the source filed them. No cut-off for these calls is given here.",
  "data": [
    {"smiles": "CCOc1c(N)c2c(c(OCC)c1OCC)C(C1c3c(cc4c(c3OC)OCO4)CCN1C)OC2=O", "note": "(stereo not drawn) [TRITOQUALINE]", "values": [
      {"measurement": "Activity", "setting": "Homo sapiens [1]", "result": 1.7, "unit": "L/s"},
      {"measurement": "Activity", "setting": "Homo sapiens [2]", "result": 1.7, "unit": "L/s"},
      {"measurement": "Activity", "setting": "Homo sapiens [3]", "result": 2.1, "unit": "L/s"},
      {"measurement": "Activity", "setting": "Homo sapiens [4]", "result": 209.5, "unit": "%"},
      {"measurement": "Activity", "setting": "Homo sapiens [5]", "result": 2, "unit": "L/s"},
      {"measurement": "Activity", "setting": "Homo sapiens [6]", "result": 2.1, "unit": "L/s"},
      {"measurement": "Activity", "setting": "Homo sapiens [7]", "result": 82.9, "unit": "%"},
      {"measurement": "Activity", "setting": "Homo sapiens [8]", "result": 2.4, "unit": "L/s"},
      {"measurement": "Activity", "setting": "Homo sapiens [9]", "result": 2.1, "unit": "L/s"},
      {"measurement": "Activity", "setting": "Homo sapiens [10]", "result": 2.6, "unit": "L/s"},
      {"measurement": "Activity", "setting": "Homo sapiens [11]", "result": 0.6, "unit": "L/s"},
      {"measurement": "Activity", "setting": "Homo sapiens [12]", "result": 71.4, "unit": "%"},
      {"measurement": "Activity", "setting": "Homo sapiens [13]", "result": 1.9, "unit": "L/s"},
      {"measurement": "Activity", "setting": "Homo sapiens [14]", "result": 0.8, "unit": "L/s"},
      {"measurement": "Activity", "setting": "Homo sapiens [15]", "result": 125, "unit": "%"},
      {"measurement": "Activity", "setting": "Homo sapiens [16]", "result": 1.9, "unit": "L/s"},
      {"measurement": "Activity", "setting": "Homo sapiens [17]", "result": 0.9, "unit": "L/s"},
      {"measurement": "Activity", "setting": "Homo sapiens [18]", "result": 1.8, "unit": "L/s"},
      {"measurement": "Activity", "setting": "Homo sapiens [19]", "result": 71.4, "unit": "%"}
    ]},
    {"smiles": "CCOC(=O)N1CCC(=C2c3ccc(Cl)cc3CCc3cccnc32)CC1", "values": [
      {"measurement": "Activity", "setting": "Homo sapiens [20]", "result": "inactive"},
      {"measurement": "Activity", "setting": "Homo sapiens [21]", "result": "inactive"},
      {"measurement": "Activity", "setting": "Homo sapiens [22]", "result": "inactive"},
      {"measurement": "Activity", "setting": "Homo sapiens [23]", "result": "inactive"}
    ]}
  ]
}
